Results published in ChEMBL document CHEMBL1201862, “PubChem BioAssay data set” (2004).
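Results reflect a 48-hour exposure of cells in 96-well plates to compound at five concentrations. GI50 = concentration required for 50% inhibition of growth.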 The source made the active and inactive calls. Rule as the data show it: active = GI50 up to about 1.1 µM and inactive = higher. Where a SMILES comes first, the peptide text is derived from it. The star is where a group is joined. Fmoc = O=C(OCC1c2ccccc2-c2ccccc21)*; Boc = CC(C)(C)OC(=O)*

Tests used:
Assay in all cases: NCI anticancer screen, dose series, 48 h
HCT-116 = tested on: HCT-116
DU-145 = tested on: DU-145
SR = tested on: SR
RPMI-8226 = tested on: RPMI-8226
A549 = tested on: A549
OVCAR-8 = tested on: OVCAR-8
Malme-3M = tested on: Malme-3M
HT-29 = tested on: HT-29
MCF7 = tested on: MCF7
HCT-15 = tested on: HCT-15
SF-268 = tested on: SF-268
BT-549 = tested on: BT-549
NCI-H226 = tested on: NCI-H226
NCI-H23 = tested on: NCI-H23
SK-OV-3 = tested on: SK-OV-3
SK-MEL-28 = tested on: SK-MEL-28
NCI/ADR-RES = tested on: NCI/ADR-RES
786-0 = tested on: 786-0
RXF 393 = tested on: RXF 393
UACC-257 = tested on: UACC-257

| Compound | GI50 (HCT-116) | GI50 (DU-145) | GI50 (SR) | GI50 (RPMI-8226) | GI50 (A549) | GI50 (OVCAR-8) | GI50 (Malme-3M) | GI50 (HT-29) | GI50 (MCF7) | GI50 (HCT-15) [µM] | GI50 (SF-268) | GI50 (BT-549) | GI50 (NCI-H226) | GI50 (NCI-H23) | GI50 (SK-OV-3) | GI50 (SK-MEL-28) | GI50 (NCI/ADR-RES) | GI50 (786-0) | GI50 (RXF 393) | GI50 (UACC-257) |
| --- | --- | --- | --- | --- | --- | --- | --- | --- | --- | --- | --- | --- | --- | --- | --- | --- | --- | --- | --- | --- |
| COC(=O)C(Cc1c[nH]c2ccccc12)NC(=O)c1ccc(-c2ccc(Cl)cc2Cl)o1 (stereo not given) | 22.3 µM (inactive) | 71.6 µM (inactive) | 26.1 µM (inactive) | 16 µM (inactive) | 34.9 µM (inactive) | 54.1 µM (inactive) | > 100 µM (inactive) | 15.7 µM (inactive) | 24.4 µM (inactive) | 52.7 | > 100 µM (inactive) | > 100 µM (inactive) | 91.4 µM (inactive) | 73.3 µM (inactive) | > 100 µM (inactive) | 65.6 µM (inactive) | 77.8 µM (inactive) | 43.3 µM (inactive) | 28.5 µM (inactive) | 16.9 µM (inactive) |
| NC(=O)C1CCN(Cc2c(Cl)c(Cl)c(CN3CCC(C(N)=O)CC3)c(Cl)c2Cl)CC1 | > 100 µM (inactive) | > 100 µM (inactive) | > 100 µM (inactive) | > 100 µM (inactive) | > 100 µM (inactive) | > 100 µM (inactive) | 90.8 µM (inactive) | > 100 µM (inactive) | > 100 µM (inactive) | > 100 | 44.7 µM (inactive) | > 100 µM (inactive) | > 100 µM (inactive) | > 100 µM (inactive) | 15.1 µM (inactive) | > 100 µM (inactive) | > 100 µM (inactive) | 77.1 µM (inactive) | 52.6 µM (inactive) | > 100 µM (inactive) |
| c1csc(-c2ccc(-c3cccs3)c3nsnc23)c1 | 19.8 µM (inactive) | 33.8 µM (inactive) | 6.47 µM (inactive) | 12.2 µM (inactive) | 33.9 µM (inactive) | 19.7 µM (inactive) | > 39.1 µM (inactive) | 49.8 µM (inactive) | 0.11 µM (active) | 0.261 | 33.7 µM (inactive) | > 52.7 µM (inactive) | > 33.5 µM (inactive) | 22 µM (inactive) | > 49.7 µM (inactive) | 20.2 µM (inactive) | > 49.5 µM (inactive) | 22.8 µM (inactive) | > 22 µM (inactive) | > 65 µM (inactive) |
| CC(C)(C)OC(=O)NCCCCC(NC(=O)OCC1c2ccccc2-c2ccccc21)C(=O)N1CCCC1C(=O)NCC(N)=O (stereo not drawn) (Fmoc-Lys(Boc)-Pro-Gly-NH2; configuration not given here) | 36.6 µM (inactive) | > 100 µM (inactive) | 21.1 µM (inactive) | 50.7 µM (inactive) | 51.4 µM (inactive) | 66.5 µM (inactive) | 18.3 µM (inactive) | 31.3 µM (inactive) | 43.9 µM (inactive) | 16.1 | 95.5 µM (inactive) | 66.2 µM (inactive) | > 100 µM (inactive) | 94.8 µM (inactive) | 2.17 µM (inactive) | > 100 µM (inactive) | 33.4 µM (inactive) | 19.3 µM (inactive) | 61 µM (inactive) | > 100 µM (inactive) |
| O=C1c2ccccc2-[n+]2ccc3c([nH]c4ccccc43)c21 [FASCAPLYSIN CHLORIDE] | 0.195 µM (active) | 1.15 µM (inactive) | 0.132 µM (active) | 0.186 µM (active) | 0.565 µM (active) | 0.439 µM (active) | 0.0586 µM (active) | 0.37 µM (active) | 0.184 µM (active) | 0.851 | 0.247 µM (active) | 2.26 µM (inactive) | 0.964 µM (active) | 0.31 µM (active) | 1.56 µM (inactive) | 0.34 µM (active) | 1.21 µM (inactive) | 0.427 µM (active) | 0.384 µM (active) | 0.327 µM (active) |
| CCCOC(=O)c1cc(O)c(O)c(O)c1 [PROPYL GALLATE] | 20.8 µM (inactive) | 30.3 µM (inactive) | > 100 µM (inactive) | > 100 µM (inactive) | 27.2 µM (inactive) | 27.9 µM (inactive) | 74.6 µM (inactive) | 32.2 µM (inactive) | 42 µM (inactive) | 20.7 | 27.7 µM (inactive) | 43.8 µM (inactive) | 17.7 µM (inactive) | > 100 µM (inactive) | > 100 µM (inactive) | 43.8 µM (inactive) | 26.5 µM (inactive) | 41.4 µM (inactive) | 19.3 µM (inactive) | > 100 µM (inactive) |
